Data from ChEMBL document CHEMBL3044687, “Microwave-assisted synthesis of some novel and potent antibacterial and antifungal compounds with biological screening” (2012).

Experiments:
Assay type in all cases: functional
Conditions in all cases: read-out: DIZ
Aspergillus niger [1] = assay: Antifungal activity against Aspergillus niger at 100 ug/ml after 48 hr by disk diffusion method
Aspergillus niger [2] = assay: Antifungal activity against Aspergillus niger at 200 ug/ml after 48 hr by disk diffusion method
Pseudomonas aeruginosa [3] = assay: Antibacterial activity against Pseudomonas aeruginosa at 200 ug/ml after 24 hr by disk diffusion method
Escherichia coli [4] = assay: Antibacterial activity against Escherichia coli at 50 ug/ml after 24 hr by disk diffusion method
Staphylococcus aureus [5] = assay: Antibacterial activity against Staphylococcus aureus at 100 ug/ml after 24 hr by disk diffusion method
Candida albicans [6] = assay: Antifungal activity against Candida albicans at 100 ug/ml after 48 hr by disk diffusion method
Escherichia coli [7] = assay: Antibacterial activity against Escherichia coli at 200 ug/ml after 24 hr by disk diffusion method
Candida albicans [8] = assay: Antifungal activity against Candida albicans at 50 ug/ml after 48 hr by disk diffusion method
Pseudomonas aeruginosa [9] = assay: Antibacterial activity against Pseudomonas aeruginosa at 100 ug/ml after 24 hr by disk diffusion method
Bacillus subtilis [10] = assay: Antibacterial activity against Bacillus subtilis at 200 ug/ml after 24 hr by disk diffusion method
Escherichia coli [11] = assay: Antibacterial activity against Escherichia coli at 100 ug/ml after 24 hr by disk diffusion method
Staphylococcus aureus [12] = assay: Antibacterial activity against Staphylococcus aureus at 50 ug/ml after 24 hr by disk diffusion method
Bacillus subtilis [13] = assay: Antibacterial activity against Bacillus subtilis at 50 ug/ml after 24 hr by disk diffusion method
Bacillus subtilis [14] = assay: Antibacterial activity against Bacillus subtilis at 100 ug/ml after 24 hr by disk diffusion method
Staphylococcus aureus [15] = assay: Antibacterial activity against Staphylococcus aureus at 200 ug/ml after 24 hr by disk diffusion method
Candida albicans [16] = assay: Antifungal activity against Candida albicans at 200 ug/ml after 48 hr by disk diffusion method
Pseudomonas aeruginosa [17] = assay: Antibacterial activity against Pseudomonas aeruginosa at 50 ug/ml after 24 hr by disk diffusion method
Aspergillus niger [18] = assay: Antifungal activity against Aspergillus niger at 50 ug/ml after 48 hr by disk diffusion method

SMILES | zone of inhibition at 100 µg/mL (Aspergillus niger [1]) | zone of inhibition at 200 µg/mL (Aspergillus niger [2]) | zone of inhibition at 200 µg/mL (Pseudomonas aeruginosa [3]) | zone of inhibition at 50 µg/mL (Escherichia coli [4]) | zone of inhibition at 100 µg/mL (Staphylococcus aureus [5]) | zone of inhibition at 100 µg/mL (Candida albicans [6]) | zone of inhibition at 200 µg/mL (Escherichia coli [7]) | zone of inhibition at 50 µg/mL (Candida albicans [8]) | zone of inhibition at 100 µg/mL (Pseudomonas aeruginosa [9]) | zone of inhibition at 200 µg/mL (Bacillus subtilis [10]) | zone of inhibition at 100 µg/mL (Escherichia coli [11]) | zone of inhibition at 50 µg/mL (Staphylococcus aureus [12]) | zone of inhibition at 50 µg/mL (Bacillus subtilis [13]) | zone of inhibition at 100 µg/mL (Bacillus subtilis [14]) | zone of inhibition at 200 µg/mL (Staphylococcus aureus [15]) | zone of inhibition at 200 µg/mL (Candida albicans [16]) | zone of inhibition at 50 µg/mL (Pseudomonas aeruginosa [17]) | zone of inhibition at 50 µg/mL (Aspergillus niger [18])
O=C1c2ccccc2C(=O)N1CN1C(=O)N(c2ccccc2)C(=O)C1(c1ccccc1)c1ccccc1 | 15 mm | 16 mm | 10 mm | 5 mm | 6 mm | 16 mm | 20 mm | 15 mm | 8 mm | 14 mm | 12 mm | 4 mm | 4 mm | 10 mm | 9 mm | 20 mm | 5 mm | 12 mm
O=C1N(c2ccccc2)C(=O)C(c2ccccc2)(c2ccccc2)N1CNc1nccs1 | 11 mm | 11 mm | 18 mm | 5 mm | 10 mm | 12 mm | 18 mm | 11 mm | 12 mm | 13 mm | 10 mm | 4 mm | 5 mm |  | 18 mm | 13 mm | 4 mm | 11 mm
O=C1N(c2ccccc2)C(=O)C(c2ccccc2)(c2ccccc2)N1Cn1ccnc1 | 12 mm | 13 mm | 18 mm | 5 mm | 9 mm | 11 mm | 19 mm | 10 mm | 9 mm | 13 mm | 14 mm | 4 mm | 5 mm | 11 mm | 18 mm | 13 mm | 5 mm | 10 mm
O=C1NC(c2ccccc2)(c2ccccc2)C(=O)N1CNc1nccs1 | 11 mm | 11 mm | 20 mm | 6 mm | 10 mm | 12 mm | 24 mm | 11 mm | 12 mm | 19 mm | 15 mm | 4 mm | 5 mm | 11 mm | 21 mm | 13 mm | 4 mm | 11 mm
O=C1N(c2ccccc2)C(=O)C(c2ccccc2)(c2ccccc2)N1CNc1nc2ccccc2s1 | 16 mm | 20 mm | 20 mm | 6 mm | 10 mm | 15 mm | 17 mm | 13 mm | 12 mm | 18 mm | 15 mm | 5 mm | 7 mm | 10 mm | 17 mm | 20 mm | 7 mm | 16 mm
O=C1NC(c2ccccc2)(c2ccccc2)C(=O)N1CN1C(=O)c2ccccc2C1=O | 15 mm | 16 mm | 10 mm | 5 mm | 6 mm | 16 mm | 20 mm | 15 mm | 8 mm | 16 mm | 12 mm | 4 mm | 4 mm | 12 mm | 9 mm | 20 mm | 5 mm | 12 mm
COC1=CC(=O)C[C@@H](C)[C@]12Oc1c(Cl)c(OC)cc(OC)c1C2=O [GRISEOFULVIN] | 24 mm | 40 mm |  |  |  | 25 mm |  | 18 mm |  |  |  |  |  |  |  | 40 mm |  | 21 mm
CN1CCN(CN2C(=O)NC(c3ccccc3)(c3ccccc3)C2=O)CC1 | 12 mm | 12 mm | 10 mm | 6 mm | 12 mm | 13 mm | 16 mm | 12 mm | 6 mm | 19 mm | 13 mm | 6 mm | 4 mm | 12 mm | 20 mm | 13 mm | 4 mm | 11 mm
CCN(CC)CN1C(=O)NC(c2ccccc2)(c2ccccc2)C1=O | 10 mm | 12 mm | 14 mm | 3 mm | 10 mm | 10 mm | 18 mm | 9 mm | 9 mm | 15 mm | 13 mm | 5 mm | 3 mm | 9 mm | 14 mm | 11 mm | 5 mm | 8 mm
CCN(CC)CN1C(=O)N(c2ccccc2)C(=O)C1(c1ccccc1)c1ccccc1 | 10 mm | 12 mm | 14 mm | 3 mm | 10 mm | 10 mm | 18 mm | 9 mm | 9 mm | 13 mm | 13 mm | 5 mm | 3 mm | 9 mm | 14 mm | 11 mm | 5 mm | 8 mm
O=C1NC(c2ccccc2)(c2ccccc2)C(=O)N1Cn1cnc2ccccc21 | 19 mm | 32 mm | 14 mm | 7 mm | 13 mm | 24 mm | 24 mm | 16 mm | 11 mm | 23 mm | 15 mm | 5 mm | 5 mm | 13 mm | 15 mm | 32 mm | 6 mm | 16 mm
CC1(C)S[C@@H]2[C@H](NC(=O)[C@H](N)c3ccccc3)C(=O)N2[C@H]1C(=O)O [AMPICILLIN] |  |  | 23 mm | 10 mm | 14 mm |  | 29 mm |  | 14 mm | 26 mm | 18 mm | 9 mm | 10 mm | 16 mm | 23 mm |  | 9 mm | 
O=C1N(c2ccccc2)C(=O)C(c2ccccc2)(c2ccccc2)N1CN1CCOCC1 | 11 mm | 12 mm | 11 mm | 4 mm | 6 mm | 12 mm | 15 mm | 10 mm | 6 mm | 11 mm | 8 mm | 5 mm | 4 mm | 9 mm | 9 mm | 15 mm | 4 mm | 10 mm
